We go through 13 molecules from PubChem BioAssay (NCI).

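These data come from cells grown in 96-well plates and exposed to compound for 48 hours at five concentrations. The concentration for 50% growth inhibition is given as GI50. TGI is the concentration that stops growth completely.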

Test systems include 786-0 renal; COLO 205 colon; HCT-15 colon; HT29 colon; K-562 leukemia; M14 melanoma; SK-OV-3 ovarian; SN12C renal; SNB-75 CNS.
What all share (experiment): NCI-60 cell line screen, 48 h

As for `O=C(c1ccccc1)n1cc(/C=C/[N+](=O)[O-])c2ccccc21`, the TGI in the assay on 786-0 renal was 39 µM; in the assay with COLO 205 colon, 59.2 µM; in the assay with HCT-15 colon it was 39.8 µM; with HT29 colon, over 100 µM; in the assay on K-562 leukemia, 47.7 µM; with M14 melanoma it was 41 µM. For the same molecule, the TGI in the assay on SK-OV-3 ovarian is over 100 µM; in the assay with SN12C renal, over 100 µM; with SNB-75 CNS, 82.1 µM.
Regarding `O=c1cccccc1[O-].O=c1cccccc1[O-].O=c1cccccc1[O-].[Nd+3]`, the TGI was over 100 µM with 786-0 renal; over 100 µM in the assay on HCT-15 colon; over 100 µM in the assay with HT29 colon; over 100 µM with K-562 leukemia; 87 µM with M14 melanoma; over 100 µM with SK-OV-3 ovarian. For the same molecule, in the assay with SN12C renal, the TGI was over 100 µM. Also, the GI50 in the assay with SN12C renal was 35.6 µM.
For `Cc1ccccc1N(CCC#N)C1=NN(C(=O)CC(=O)Nc2ccc(Cl)cc2)C(c2ccccc2)C1` (configuration not stated), the TGI with 786-0 renal, in the assay on COLO 205 colon, in the assay with HCT-15 colon, in the assay with HT29 colon, in the assay on K-562 leukemia and with M14 melanoma was over 100 µM throughout. In addition, the TGI with SK-OV-3 ovarian, with SN12C renal and in the assay with SNB-75 CNS was over 100 µM throughout.
In the case of `CC(=O)OC(COc1ccc2c(c1)[n+]([O-])nc(N)[n+]2[O-])CN1CCCCC1` (configuration not stated), the TGI in the assay with 786-0 renal is 36.6 µM; in the assay with COLO 205 colon, 30.5 µM; with HCT-15 colon, 31.6 µM; with HT29 colon it was 23.1 µM; with K-562 leukemia, 38.5 µM; in the assay with M14 melanoma, 38.7 µM. The values for the TGI in the assay on SN12C renal and in the assay on SNB-75 CNS were 40.3 µM and 46.7 µM, respectively.
For `CC(=O)Oc1ccc2c(=O)c(C(C)=O)coc2c1`, the TGI in the assay on 786-0 renal, with COLO 205 colon, in the assay on HCT-15 colon, with HT29 colon, in the assay with K-562 leukemia and in the assay on M14 melanoma was over 100 µM in each case.
With `CCCCCOC(=O)Nc1nc(=O)n(C2OC(C)C(O)C2O)cc1F` (configuration not stated), the GI50 with 786-0 renal, with HCT-15 colon, in the assay on HT29 colon, in the assay on M14 melanoma, in the assay on SK-OV-3 ovarian and with SN12C renal was over 10000 µM each time. In addition, the TGI with 786-0 renal, in the assay with HCT-15 colon, with HT29 colon, in the assay on M14 melanoma, in the assay with SK-OV-3 ovarian and in the assay on SN12C renal was over 10000 µM throughout.
With `OC1CC(O)O[C@H](c2ccccc2)C1` (some centres not stated), the TGI with 786-0 renal, with COLO 205 colon, in the assay on HCT-15 colon, in the assay on HT29 colon, in the assay with K-562 leukemia and in the assay on M14 melanoma was over 100 µM in each case. In addition, the TGI in the assay on SN12C renal and in the assay with SNB-75 CNS was over 100 µM in each case.
Consider `CC(=O)OCc1nnn2c1C(OC(C)=O)CC2` (configuration not stated), for which the TGI in the assay on 786-0 renal, in the assay with COLO 205 colon, in the assay with HCT-15 colon, in the assay with HT29 colon, in the assay on K-562 leukemia and in the assay with M14 melanoma was over 100 µM throughout. Also, the TGI with SK-OV-3 ovarian, in the assay with SN12C renal and in the assay on SNB-75 CNS was over 100 µM throughout.
Turning to `NNC(=O)/C(NC(=O)c1ccccc1)=C(\N)c1cccc([N+](=O)[O-])c1`, the TGI with 786-0 renal, in the assay with COLO 205 colon, in the assay on HCT-15 colon, with HT29 colon, with K-562 leukemia and in the assay on M14 melanoma was over 100 µM in each case. The TGI with SK-OV-3 ovarian, in the assay with SN12C renal and in the assay on SNB-75 CNS was over 100 µM throughout.
Consider `Cc1[nH]c(=O)n2c(C)nnc2c1C(=O)O`, for which the TGI in the assay with 786-0 renal, in the assay with COLO 205 colon, in the assay with HCT-15 colon, in the assay with HT29 colon, with K-562 leukemia and with M14 melanoma was over 100 µM throughout. Besides, the TGI in the assay on SK-OV-3 ovarian and in the assay on SN12C renal was over 100 µM each time.
As for `OC1(C(Sc2ccccc2)Sc2ccccc2)CCCCCC1`, the TGI in the assay on 786-0 renal was found to be 64.9 µM; in the assay with COLO 205 colon, 57.8 µM; in the assay with HCT-15 colon, 60.5 µM; in the assay with M14 melanoma, 49.2 µM; with SK-OV-3 ovarian, 53.5 µM; in the assay with SN12C renal it was 38.5 µM. In the assay with SNB-75 CNS, the TGI is over 100 µM.
As for `CCN(N=O)C1C2(CCCC2)NC(=O)C12CCCC2` (configuration not stated), the TGI in the assay on 786-0 renal, in the assay on HCT-15 colon, with HT29 colon, in the assay with K-562 leukemia, with M14 melanoma and in the assay on SK-OV-3 ovarian was over 100 µM throughout. Further, the TGI with SN12C renal and with SNB-75 CNS was over 100 µM in each case.
Turning to `CCOC(=O)CCc1c(C)c2c(OC)cc(OC)cc2oc1=O`, the TGI in the assay with 786-0 renal, in the assay with COLO 205 colon, in the assay on HT29 colon, in the assay on M14 melanoma, in the assay on SN12C renal and with SNB-75 CNS was over 100 µM throughout.
